The values below come from PubChem BioAssay (NCI).

“And” between values parts separate entries of the source, which are not always exact repeats. Equal entries are not always repeated.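 Five concentrations, 48 hours, 96-well plates. GI50 = concentration required for 50% inhibition of growth. Definition used: TGI = concentration required for complete inhibition of growth.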

Holding throughout (experiment): inhibition of tumour cell growth, NCI panel, 48 h
The test system of experiment [1] is ACHN renal.
Experiment [2] relates to A549 NSCLC.
Experiment [3] concerns UACC-257 melanoma.
In experiment [4] the test system is SN12C renal.
Experiment [5] relates to OVCAR-8 ovarian.
In experiment [6] the test system is SW-620 colon.
Experiment [7] relates to K-562 leukemia.
Experiment [8] has as its system OVCAR-4 ovarian.
Experiment [9] relates to HCT-15 colon.
Experiment [10] deals with SNB-75 CNS.

Consider `Oc1ccc(C(c2ccc(O)cc2)c2ccc(Cl)cn2)cc1`, for which the GI50 in [1] is 0.427 µM; in experiment [2], 1.21 µM; in [3], 23.1 µM; in experiment [4] it was 0.0408 µM; in [5], 0.0346 µM; in experiment [6] it was 60.7 µM. For the same molecule, the GI50 in [7] was 13.5 µM; in experiment [8] it was 0.0243 µM; in experiment [9] it was 0.337 µM; in experiment [10] it was 0.17 µM. In addition, the TGI in [1] was 22.2 µM; in [2], over 100 µM; in experiment [3], over 100 µM; in experiment [4], 0.331 µM; in experiment [5], 1.16 µM; in [6] it was over 100 µM. Also, the TGI is over 100 µM in experiment [7], 0.0598 µM in [8], 56.1 µM in experiment [9] and 0.451 µM in experiment [10].
On to `CCCC(=O)Nc1cc(C(=O)N2C[C@@H]3C[C@]34C2=CC(=O)c2[nH]cc(C)c24)n(COC)c1`, for which the GI50 in [1] is 3.62 µM; in experiment [2], 16.6 µM; in experiment [3] it was 3.03 µM; in [4], 4.45 µM; in experiment [6] it was 2.7 µM; in [7], 2.04 µM. Also, the GI50 in experiment [9] is 13.9 µM; in experiment [10] it was 2.99 µM. In addition, the TGI is 24.6 µM and 26.1 µM in experiment [1]; 40.7 µM and 47.9 µM in experiment [2]; 32.4 µM and 6.62 µM in experiment [3]; 31.7 µM and 16.1 µM in experiment [4]; 9.06 µM and 5.87 µM in [5]; 50 µM and 19.9 µM in [6]. Moreover, the TGI in experiment [7] was 50 µM and > 100 µM; in experiment [8], 20.3 µM and 19.9 µM; in experiment [9] it was 50 µM and 33.3 µM; in experiment [10], 17.7 µM and 12.3 µM.
With `COc1ccc(-c2nc3sc(-c4ccc(Cl)cc4)cn3n2)cc1`, the GI50 in [1] is 0.927 µM; in experiment [2] it was 1.59 µM; in [3] it was over 50 µM; in experiment [4], 1.84 µM; in experiment [5] it was 2.6 µM; in experiment [6], 5.51 µM. The GI50 in experiment [7] was 29.4 µM; in experiment [8] it was 0.766 µM; in experiment [9] it was 24.5 µM; in experiment [10] it was 1.61 µM. For the same molecule, the TGI was 2.02 µM in experiment [1]; 5.89 µM in [2]; over 50 µM in [3]; over 50 µM in [4]; over 50 µM in [5]; over 50 µM in [6]. For the same molecule, the TGI was over 50 µM in experiment [7], 1.63 µM in [8], over 50 µM in [9] and 6.85 µM in experiment [10].
For the molecule `NCCCOCC(=O)O`, the TGI in experiment [1], in experiment [2], in [3], in experiment [4], in [5] and in experiment [6] was over 100 µM in each case. The TGI in experiment [7], in experiment [8], in experiment [9] and in [10] was over 100 µM each time.
As to `COc1cc(/C=C2\CCC/C(=C\c3cc(OC)c(O)c(OC)c3)C2=O)cc(OC)c1O`, the GI50 was 1.85 µM in experiment [1]; 3.14 µM in experiment [2]; 2.92 µM in [3]; 4.37 µM in experiment [4]; 2.26 µM in experiment [7]; 8.24 µM in [8]. For the same molecule, the TGI in [1] is 2.31 µM and 3.94 µM; in experiment [3], 75 µM and > 100 µM; in [4] it was 75 µM and > 100 µM; in experiment [5], 75 µM; in experiment [6], 75 µM and > 100 µM; in experiment [7], 75 µM and > 100 µM. Moreover, the TGI in experiment [8] was 75 µM and > 100 µM; in experiment [9] it was 3.45 µM; in experiment [10], over 100 µM.
With `COc1ccc(C2SCC(=O)N2NC(=O)C(O)c2ccccc2)cc1OC` (stereo not drawn), the GI50 in [1], in experiment [2], in experiment [3], in [4], in experiment [5] and in [6] was over 100 µM throughout. Moreover, the GI50 in experiment [7], in [8], in [9] and in experiment [10] was over 100 µM in each case. The TGI in experiment [1], in [2], in experiment [3], in [4], in [5] and in experiment [6] was over 100 µM throughout. Moreover, the TGI in [7], in experiment [8], in [9] and in experiment [10] was over 100 µM in each case.
`COc1ccccc1N=C(N)N/N=C/c1c[nH]c2ccccc12`: the TGI in experiment [1] was 22 µM; in [2], 26.6 µM; in [3], 11.7 µM; in experiment [4], 22.7 µM; in experiment [5] it was 28.2 µM; in experiment [6] it was 10.4 µM. For the same molecule, the TGI in experiment [7] came out at 11.6 µM; in experiment [8] it was 31.3 µM; in [9] it was 15.7 µM; in experiment [10] it was 25.4 µM.
As for `Cc1ccc(S(=O)(=O)NCCNC2=CC(=O)c3nc4ccccc4c4ccnc2c34)cc1`, the GI50 was 22.3 µM in experiment [1]; 15.2 µM in experiment [2]; 19.5 µM in experiment [3]; 17.8 µM in [4]; 19.5 µM in experiment [5]; 19.6 µM in experiment [6]. Besides, the GI50 in experiment [7] is 25 µM; in experiment [8], 26.8 µM; in [9], 16.2 µM; in experiment [10], 18.3 µM. For the same molecule, the TGI in experiment [1] came out at 97 µM; in experiment [2], 44.5 µM; in experiment [3], 54.3 µM; in experiment [4] it was 39.6 µM; in experiment [5], 72.7 µM; in [6], 97.2 µM. Besides, the TGI in [7] was over 100 µM; in [8], over 100 µM; in experiment [9], 48.1 µM; in experiment [10], 41.3 µM.
Consider `O=C(Nc1ccc(F)cc1)c1ccc(NC2=C(Cl)C(=O)N(Cc3ccccc3)C2=O)cc1`, for which the GI50 is 14.3 µM in [1]; 8.68 µM in experiment [2]; 19.8 µM in experiment [3]; 4.12 µM in experiment [4]; 4.66 µM in [5]; 4.54 µM in [6]. Besides, the GI50 was 3.79 µM in experiment [7], 16.5 µM in experiment [8], 13.3 µM in experiment [9] and 15.9 µM in [10]. Also, the TGI in experiment [1] was 27.8 µM; in experiment [2], 39 µM; in experiment [3], 56 µM; in [4] it was 16.4 µM; in [5] it was 30.9 µM; in experiment [6] it was over 100 µM. Further, the TGI in experiment [7] was found to be 13.7 µM; in experiment [8] it was 39.6 µM; in [9] it was 49.4 µM; in experiment [10] it was 37.4 µM.
